The assay concerns the target T1, PI3K (Homo sapiens, UniProt O00329).
T1 construct: purchased Millipore (Bedford, Mass.)
Briefly: PI3K enzyme assays (at least one assay described herein). It is filed as biochemical. As to conditions: according to at least one assay described herein; assay not specified. The text has this: PI3-Kinase luminescent assay kit including lipid kinase substrate, D-myo-phosphatidylinositol 4,5-bisphosphate (PtdIns(4,5)P2)D (+)-sn-1,2-di-O-octanoylglyceryl, 3-O-phospho linked (PIP2), biotinylated I(1,3,4,5)P4, PI(3,4,5)P3 Detector Protein is purchased from Echelon Biosciences (Salt Lake City, Utah). AlphaScreen™ GST Detection Kit including donor and acceptor beads was purchased from PerkinElmer Life Sciences (Waltham, Mass.). PI3Kδ (p110δ/p85α) is purchased from Millipore (Bedford, Mass.). ATP, MgCl2, DTT, EDTA, HEPES and CHAPS are purchased from Sigma-Aldrich (St. Louis, Mo.).
The kinase reaction are conducted in 384-well REMP plate from Thermo Fisher Scientific in a final volume of 40 μL. Inhibitors are first diluted serially in DMSO and added to the plate wells before the addition of other reaction components. The final concentration of DMSO in the assay is 2%. The PI3K assays are carried out at room temperature in 50 mM HEPES, pH 7.4, 5 mM MgCl2, 50 mM NaCl, 5 mM DTT and CHAPS 0.04%. […] The activity of the product is determined on Fusion-alpha microplate reader (Perkin-Elmer). […]
The kinase reactions are conducted in clear-bottom 96-well plate from Thermo Fisher Scientific in a final volume of 24 μL. […] After the plate sealing, the radioactivity of the product is determined by scintillation counting on Topcount (Perkin-Elmer). […]

One compound from US20210253582A1, “SALTS AND SOLID FORMS AND PROCESSES OF PREPARING A PI3K INHIBITOR” (Incyte Corporation, priority 2020, published 2021) can be followed below.

T1 sequence (O00329 whole entry): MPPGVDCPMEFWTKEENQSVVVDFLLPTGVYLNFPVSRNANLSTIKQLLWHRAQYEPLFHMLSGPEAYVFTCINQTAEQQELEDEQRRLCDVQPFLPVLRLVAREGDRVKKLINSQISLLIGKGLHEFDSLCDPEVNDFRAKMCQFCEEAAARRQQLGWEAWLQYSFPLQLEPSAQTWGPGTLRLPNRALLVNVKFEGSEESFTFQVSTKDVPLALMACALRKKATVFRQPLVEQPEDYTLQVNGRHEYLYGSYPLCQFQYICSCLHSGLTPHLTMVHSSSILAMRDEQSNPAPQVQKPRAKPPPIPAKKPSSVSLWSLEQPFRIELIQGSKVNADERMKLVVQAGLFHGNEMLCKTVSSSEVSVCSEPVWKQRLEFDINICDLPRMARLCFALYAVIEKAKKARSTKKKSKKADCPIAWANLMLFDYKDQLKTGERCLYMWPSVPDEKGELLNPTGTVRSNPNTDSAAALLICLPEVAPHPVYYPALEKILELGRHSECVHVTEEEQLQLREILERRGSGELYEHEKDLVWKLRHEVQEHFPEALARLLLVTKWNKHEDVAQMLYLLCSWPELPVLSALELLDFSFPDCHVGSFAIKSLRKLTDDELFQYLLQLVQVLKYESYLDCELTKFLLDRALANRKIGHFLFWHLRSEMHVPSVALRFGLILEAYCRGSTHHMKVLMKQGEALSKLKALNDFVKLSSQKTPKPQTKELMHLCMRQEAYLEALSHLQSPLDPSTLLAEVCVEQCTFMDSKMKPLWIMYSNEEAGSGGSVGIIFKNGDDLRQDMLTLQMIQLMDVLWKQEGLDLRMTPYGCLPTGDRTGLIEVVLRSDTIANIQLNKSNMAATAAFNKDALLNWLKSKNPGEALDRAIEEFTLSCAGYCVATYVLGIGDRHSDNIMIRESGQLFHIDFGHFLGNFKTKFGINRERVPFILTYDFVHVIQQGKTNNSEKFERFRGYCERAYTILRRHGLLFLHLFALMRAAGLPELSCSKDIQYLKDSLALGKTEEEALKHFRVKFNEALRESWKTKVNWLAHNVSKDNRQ
T1 sequence (P27986 whole entry partner): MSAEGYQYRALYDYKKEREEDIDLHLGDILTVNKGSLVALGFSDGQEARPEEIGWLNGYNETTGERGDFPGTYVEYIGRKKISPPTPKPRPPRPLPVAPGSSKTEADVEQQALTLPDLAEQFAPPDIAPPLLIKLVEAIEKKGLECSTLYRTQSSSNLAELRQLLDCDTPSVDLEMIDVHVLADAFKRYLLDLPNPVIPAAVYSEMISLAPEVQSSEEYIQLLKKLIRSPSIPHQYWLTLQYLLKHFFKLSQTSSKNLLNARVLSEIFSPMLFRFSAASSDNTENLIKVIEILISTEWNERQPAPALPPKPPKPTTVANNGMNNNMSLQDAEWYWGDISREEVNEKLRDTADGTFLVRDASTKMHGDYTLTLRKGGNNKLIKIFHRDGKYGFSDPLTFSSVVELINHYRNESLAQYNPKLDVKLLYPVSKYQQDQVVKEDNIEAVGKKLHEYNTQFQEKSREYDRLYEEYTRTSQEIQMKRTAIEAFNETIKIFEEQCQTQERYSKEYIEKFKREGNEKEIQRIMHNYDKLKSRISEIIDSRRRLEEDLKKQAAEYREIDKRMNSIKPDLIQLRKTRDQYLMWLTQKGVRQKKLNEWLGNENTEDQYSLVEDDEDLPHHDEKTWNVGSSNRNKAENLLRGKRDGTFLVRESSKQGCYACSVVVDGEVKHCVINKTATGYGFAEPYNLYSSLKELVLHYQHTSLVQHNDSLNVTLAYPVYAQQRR

For the compound `CCOc1c([C@H](C)n2nc(C)c3c(N)ncnc32)cc(Cl)c(F)c1[C@@H]1CNC(=O)O1` [compound of Formula I, (R)-5-(3-((S)-1-(4-amino-3-methyl-1H-pyrazolo[3,4-d]pyrimidin-1-yl)ethyl)-5-chloro-2-ethoxy-6-fluorophenyl)oxazolidin-2-one], the “PI3K inhibition (qualitative statement)” value is “found to be PI3K inhibitors”.
